Patent publication US6608082B1, “Treatment of erectile dysfunction using isoquinoline compound melanocortin receptor ligands” (Lion Bioscience AG, priority 1998, dated 2003)
Read-outs that look alike come from different tables or passages of the source. One block for each compound: values may come before it.

Legend:
MCR-4 = biological target: T1, MCR-4 (Homo sapiens, UniProt P32245); test: Melanocortin receptor binding assay, competition with 125I-HP 467, HEK 293 cells expressing hMCR-4; conditions: inhibition of binding of 125I-HP 467, HEK 293 cells expressing MCR-4; for IC50: read-out: MC-4 IC50
T1 construct: expressed in transfected cells; host or cells: HEK 293
T1 sequence (P32245 whole entry): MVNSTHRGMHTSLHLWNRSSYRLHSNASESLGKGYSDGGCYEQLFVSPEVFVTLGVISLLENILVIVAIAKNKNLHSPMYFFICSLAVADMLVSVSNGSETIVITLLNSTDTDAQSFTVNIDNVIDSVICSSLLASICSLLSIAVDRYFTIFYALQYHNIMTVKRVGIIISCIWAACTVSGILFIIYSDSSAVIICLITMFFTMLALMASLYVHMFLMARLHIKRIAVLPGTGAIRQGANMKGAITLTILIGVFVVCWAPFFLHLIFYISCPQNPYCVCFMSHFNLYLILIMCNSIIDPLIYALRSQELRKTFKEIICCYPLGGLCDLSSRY
Method: All cell culture media and reagents were obtained from GibcoBRL (Gaithersburg Md.), except for COSMIC CALF SERUM (HyClone; Logan Utah).
Cells were suspended in PBS, 10% COSMIC CALF SERUM and 1 mM CaCl2. Cell suspensions were prepared at a density of 2×10^4 cells/ml for HEK 293 cells expressing hMCR-3, hMCR-4 or hMCR-5, and 1×10^5 cells/ml for HEK 293 cells expressing hMCR-1. Suspensions were placed in a water bath and allowed to warm to 37° C. for 1 hr.
Binding assays were performed in a total volume of 250 μl for HEK 293 cells. […] To each tube was added 4×10^3 HEK 293 cells expressing hMCR-3, hMCR-4 or hMCR-5, or 2×10^4 cells expressing hMCR-1. Assays were incubated for 2.5 hr at 37° C.
GF/B filter plates were prepared by soaking for at least one hour in 5 mg/ml BSA and 10 mM CaCl2. Assays were filtered using a Brandel 96-well cell harvester (Brandel Inc.; Gaithersburg, Md.). The filters were washed four times with cold 50 mM Tris, pH 7.4, the filter plates were dehydrated for 2 hr and 35 μl of MICROSCINT was added to each well. Filter plates were counted using a Packard Topcount (Packard Instrument Co.) and data analyzed using GraphPad PRISM v2.0 (GraphPad Software Inc.; San Diego Calif.) and Microsoft EXCEL v5.0a (Microsoft Corp.; Redmond Wash.).
To assay isoquinoline compounds, binding assays were performed in duplicate in a 96 well format. […] A 0.2 ml aliquot of suspended cells was added to each well to give the cell numbers indicate above, and the cells were incubated at 37° C. for 2.5 hr. Cells were harvested on GF/B filter plates as described above and counted.

MCR-1 = biological target: T2, MCR-1 (Homo sapiens, UniProt Q01726); test: Melanocortin receptor binding assay, competition with 125I-HP 467, HEK 293 cells expressing hMCR-1; conditions: for IC50: read-out: MC-1 IC50; for % Disp. MC-1 10 μM: displacement of 125I-HP 467 at 10 μM isoquinoline compound
T2 construct: expressed in transfected cells; host or cells: HEK 293
T2 sequence (Q01726 whole entry): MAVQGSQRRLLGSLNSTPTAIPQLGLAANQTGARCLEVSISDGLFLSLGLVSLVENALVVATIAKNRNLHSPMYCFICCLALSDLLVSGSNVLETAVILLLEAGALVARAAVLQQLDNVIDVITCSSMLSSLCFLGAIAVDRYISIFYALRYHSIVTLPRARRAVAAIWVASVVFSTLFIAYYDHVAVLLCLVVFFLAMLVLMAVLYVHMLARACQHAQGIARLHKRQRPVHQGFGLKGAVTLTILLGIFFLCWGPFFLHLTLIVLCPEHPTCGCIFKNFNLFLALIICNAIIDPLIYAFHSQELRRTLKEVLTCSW
Summary of the method: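 Test compounds compete on intact HEK 293 cells carrying hMCR-1 (2×10^4 per tube) or hMCR-4 (4×10^3 per tube), suspended in PBS, 10% calf serum, 1 mM CaCl2.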

[1] = inhibition of binding of 125I-HP 467, HEK 293 cells expressing MCR-1
[2] = competition with 125I-HP 467, HEK 293 cells expressing MCR-1

IC50 (MCR-4): 4820 nM
IC50 (MCR-1; [1]): 103 nM
SMILES: CCNc1ccc(C2C(CN)c3ccccc3CN2CCCC(CN)NCC2CC2CNC(C)C)cc1 (stereo not shown) [TRG 2420-25]

IC50 (MCR-4; TRG 2414 library): 5540 nM
SMILES: CCOc1ccccc1CNCC1c2ccccc2CN(CCCCC(CN)NCCc2ccccc2)C1c1ccc(Cl)cc1Cl (stereo not shown) [TRG 2414-6]

IC50 (MCR-4; TRG 2414 library): 65600 nM
SMILES: NCC(CCCCN1Cc2ccccc2C(CNCc2ccccc2C(F)(F)F)C1c1ccc(Cl)cc1Cl)NCc1ccccc1 (mixture of isomers) [TRG 2414-3]

IC50 (MCR-4; TRG 2414 library): 4560 nM
SMILES: CCOc1ccccc1CNCC1c2ccccc2CN(CCCCC(CN)NCc2ccccc2)C1c1ccc(Cl)cc1Cl (stereo not shown) [TRG 2414-7]

MC-4 IC50 (MCR-4; TRG 2414 library): no fit
SMILES: CC(C)Cc1ccc(C(C)CNC(CN)CCCCN2Cc3ccccc3C(CNCc3ccccc3C(F)(F)F)C2c2ccc(Cl)cc2Cl)cc1 (stereo not shown) [TRG 2414-4]

IC50 (MCR-4; TRG 2414 library): 29300 nM
SMILES: NCC(CCCCN1Cc2ccccc2C(CNCc2ccccc2C(F)(F)F)C1c1ccc(Cl)cc1Cl)NCCc1ccccc1 (stereo not shown) [TRG 2414-2]

IC50 (MCR-4; TRG 2414 library): 480 nM
SMILES: CCOc1ccccc1CNCC1c2ccccc2CN(CCCCC(N)CN)C1c1ccc(Cl)cc1Cl (stereo not shown) [TRG 2414-5]

More lines, now with the values behind:

SMILES: COc1cccc(CCNCC2c3ccccc3CN(CCCCC(CN)NCc3ccc(-c4ccccc4)cc3)C2c2cc(C(F)(F)F)cc(C(F)(F)F)c2)c1 (stereo not shown) [TRG 2421-40]
IC50 (MCR-4): 3980 nM
IC50 (MCR-1; [1]): 12100 nM

SMILES: NCC(N)CCCCN1Cc2ccccc2C(CNCc2ccccc2C(F)(F)F)C1c1ccc(Cl)cc1Cl (stereo not shown) [TRG 2414-1]
IC50 (MCR-4; TRG 2414 library): 7590 nM

SMILES: CCCCCNc1ccc(C2C(CNCCc3ccccc3)c3ccccc3CN2CCCCC(CN)NCc2ccccc2)cc1 (stereo not shown) [TRG 2412-3]
IC50 (MCR-1; [1]): 360 nM

SMILES: CNCCNC(CN)CCCCN1Cc2ccccc2C(CNCCc2ccccc2)C1c1ccc(-c2ccccc2)cc1 (stereo not shown) [TRG 2413-1]
IC50 (MCR-1; [1]): 440 nM

SMILES: CNC(CN)CCCCN1Cc2ccccc2C(CNC2CCCCC2)C1c1ccccc1O (mixture of isomers) [TRG 2405-182]
% Disp. of 125I-HP 467 (first of duplicate) (MCR-1; 10 μM isoquinoline compound, HEK 293 cells expressing MCR-1, duplicate 1): 37.5%
% Disp. of 125I-HP 467 (second of duplicate) (MCR-1; 10 μM isoquinoline compound, HEK 293 cells expressing MCR-1, duplicate 2): 44.4%

SMILES: CCCCNc1ccc(C2C(CN)c3ccccc3CN2CCCC(CN)NCCc2ccc(Br)cc2)cc1 (stereo not shown) [TRG 2409-222]
IC50 (MCR-1; [2]): 120 nM

SMILES: CNC(CN)CN1Cc2ccccc2C(CNC2CCCCC2)C1c1ccccc1Br (stereo not shown) [TRG 2405-102]
% Disp. MC-1 10 μM (MCR-1; first of duplicate): 44.7%
% Disp. MC-1 10 μM (MCR-1; second of duplicate): 50.4%

SMILES: COc1ccc(C2C(CNC3CCCCC3)c3ccccc3CN2CCN)cc1 (stereo not shown) [TRG 2405-60]
% Disp. MC-1 10 μM (MCR-1; first of duplicate): 41.4%
% Disp. MC-1 10 μM (MCR-1; second of duplicate): 42.4%

SMILES: NCCNC(CN)CCCN1Cc2ccccc2C(CN)C1c1ccc(-c2ccccc2)cc1 (stereo not shown) [TRG 2413-7]
IC50 (MCR-1; [1]): 1540 nM

SMILES: CNC(CN)CN1Cc2ccccc2C(CNC2CCCCC2)C1c1ccc(-c2ccccc2)cc1 (stereo not shown) [TRG 2405-151]
% Disp. MC-1 10 μM (MCR-1; first of duplicate): 61.5%
% Disp. MC-1 10 μM (MCR-1; second of duplicate): 57.6%

SMILES: NCCN1Cc2ccccc2C(CNC2CCCCC2)C1c1ccccc1Br (stereo not shown) [TRG 2405-12]
% Disp. MC-1 10 μM (MCR-1; first of duplicate): 38.7%
% Disp. MC-1 10 μM (MCR-1; second of duplicate): 41.8%

SMILES: COCCNC(CN)CCCCN1Cc2ccccc2C(CNC2CCCCC2)C1c1ccc(-c2ccccc2)cc1 (stereo not shown) [TRG 2411-19]
IC50 (MCR-1; [2]): 490 nM

SMILES: CNC(CN)CN1Cc2ccccc2C(CNC2CCCCC2)C1c1cccc(CN)c1 (stereo not shown) [TRG 2405-129]
% Disp. MC-1 10 μM (MCR-1; first of duplicate): 39.8%
% Disp. MC-1 10 μM (MCR-1; second of duplicate): 39.6%

SMILES: CNC(CN)CN1Cc2ccccc2C(CNC2CCCCC2)C1c1ccc(C)cc1 (stereo not shown) [TRG 2405-159]
% Disp. MC-1 10 μM (MCR-1; first of duplicate): 51%
% Disp. MC-1 10 μM (MCR-1; second of duplicate): 53.5%

SMILES: CCNc1ccc(C2C(CNCCc3ccccc3)c3ccccc3CN2CCCCC(CN)NCC)cc1 (stereo not shown) [TRG 2411-37]
IC50 (MCR-1; [2]): 130 nM
